In paper PMC4738175 (Cancer letters, 2015):

Tests used:
[1] = target: T1, sEH (Homo sapiens, UniProt P34913); experiment: sEH enzyme assay; assay type: biochemical; settings: read-out: sEH IC50
T1 sequence (P34913 1-555): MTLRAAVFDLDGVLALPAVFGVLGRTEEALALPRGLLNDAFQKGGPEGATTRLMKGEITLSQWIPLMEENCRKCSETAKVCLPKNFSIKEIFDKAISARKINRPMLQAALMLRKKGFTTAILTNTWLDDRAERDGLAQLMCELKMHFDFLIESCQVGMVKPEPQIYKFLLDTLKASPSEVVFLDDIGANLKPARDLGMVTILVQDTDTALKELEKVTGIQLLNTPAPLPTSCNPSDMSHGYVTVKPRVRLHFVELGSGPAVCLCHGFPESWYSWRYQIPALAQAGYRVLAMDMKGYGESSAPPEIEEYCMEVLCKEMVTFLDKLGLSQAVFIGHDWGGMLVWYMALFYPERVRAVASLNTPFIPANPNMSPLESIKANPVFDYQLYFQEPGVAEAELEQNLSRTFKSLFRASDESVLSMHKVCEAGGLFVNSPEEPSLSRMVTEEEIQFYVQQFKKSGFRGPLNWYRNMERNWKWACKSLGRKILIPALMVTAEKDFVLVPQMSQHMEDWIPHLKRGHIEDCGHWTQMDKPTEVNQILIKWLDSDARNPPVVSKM

[2] = tested on: PK03 cells; settings: 10mg/kg body weight in drinking water, end of 5 weeks, vs PK03 control
[3] = tested on: phosphorylation of MEK1/2 and ERK1/2; experiment: Western blot of phosphorylated MEK1/2 and ERK1/2 in PK03 cells; assay type: cell-based, mouse; settings: PK03 cells, 3, 10 or 30μM, 24 hours
[4] = tested on: phosphorylated ERK1/2; experiment: Immunohistochemical staining of phosphorylated ERK1/2 in PK03 tumors; settings: 10mg/kg, n = 3 mice/group, vs PK03 control
[5] = tested on: PK03 tumors; experiment: Histopathology and immunohistochemistry; settings: 10mg/kg; for number of MPO-labeled neutrophils/macrophages per high power field: 40X objective lens, P< 0.05 vs control; for tumor morphology vs PK03 control tumors: histopathology
[6] = tested on: phosphorylation of c-RAF; experiment: Western blot of phosphorylated c-RAF in PK03 cells; assay type: cell-based, mouse; settings: PK03 cells, 3, 10 or 30μM, 24 hours
[7] = tested on: sEH; experiment: Plasma oxylipin metabolic profile by LC-MS/MS in mice implanted with PK03 cells; assay type: in vivo
[8] = Toxicity in mice; assay type: in vivo; settings: 35 days treatment
[9] = tested on: PK03 cells; experiment: Colony formation assay in PK03 cells; settings: Mus musculus, read-out: IC50 dose, PK03 cell growth
[10] = in vivo; settings: male, Swiss Webster, mouse, po, 1 mg/kg
[11] = cited from earlier work

Work on CNC(=O)c1cc(O[C@H]2CC[C@@H](NC(=O)Nc3ccc(Cl)c(C(F)(F)F)c3)CC2)ccn1 [c-CUPM] yielded an IC50 [1] of 0.0005 µM.

With CNC(=O)c1cc(O[C@H]2CC[C@H](NC(=O)Nc3ccc(Cl)c(C(F)(F)F)c3)CC2)ccn1 [t-CUPM, trans-4-{4-[3-(4-chloro-3-trifluoromethyl-phenyl)-ureido]-cyclohexyloxy}-pyridine-2-carboxylic acid methylamide] the tumor size [2] was 275.9 ± 68.9 mm^3, the tumor weight [2] was 0.25 ± 0.06 g and the “inhibition of phosphorylation of MEK1/2 and ERK1/2” value [3] was “significantly inhibited”. For the same molecule, the “staining intensity of phosphorylated ERK1/2” value [4] was 60 ± 19.2, the “number of MPO-labeled neutrophils/macrophages per high power field” value [5] was 12.4 ± 6.1 and the “tumor morphology vs PK03 control tumors” value [5] was “more glandular differentiation with lumen formation and less inflammatory cells reaction”. The “inhibition of phosphorylation of c-RAF” value [6] was “significantly inhibited”, the “effect on cyclooxygenase and lipoxygenase mediated metabolites (prostaglandins, thromboxane, leukotrienes, HETE)” value [7] was “no significant difference” and the “toxic effect grossly and histopathologically” value [8] was “did not produce any toxic effect”. The IC50 [9] was 8.1 µM and the half-life [10] was 2.2 ± 1.6 h.

In the case of CNC(=O)c1cc(Oc2ccc(NC(=O)Nc3ccc(Cl)c(C(F)(F)F)c3)cc2)ccn1 [Sorafenib, reference compound], the “clinically achievable plasma concentration” value [11] is given as 10 µM, the “inhibition of phosphorylation of MEK1/2 and ERK1/2” value [3] is given as “significantly inhibited” and the “number of MPO-labeled neutrophils/macrophages per high power field” value [5] is given as 15.1 ± 9.8. The “tumor morphology vs PK03 control tumors” value [5] was “more glandular differentiation with lumen formation and less inflammatory cells reaction”, the “inhibition of phosphorylation of c-RAF” value [6] was “but not by sorafenib or t-AUCB” and the “effect on cyclooxygenase and lipoxygenase mediated metabolites (prostaglandins, thromboxane, leukotrienes, HETE)” value [7] was “no significant difference”. For the same molecule, the IC50 [9] was 9 µM, the Tmax [10] was 2 h and the half-life [10] was 1.5 ± 0.5 h.
